From patent publication US10590121B2, “Kinase inhibitors and methods for making and using” (Rigel Pharmaceuticals, Inc., priority 2017, dated 2020)

How the values were obtained:
[1] = system: LPS induced IL23p19 in THP-1 cells; assay: LPS Induced IL23p19 in THP-1 Cells (with IFNγ Primed) Assay; type: cell-based; conditions: Homo sapiens; THP-1 cells primed with IFNγ 50 ng/mL, 1 μg/mL LPS, 18 hours, 10 pt; read-out: IL23-p19 ELISA, THP1-IFNy, LPS, 10 pt EC50
Summary of the method: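 THP-1 cells were primed with IFNγ (50 ng/mL, ~18 h), pre-incubated 1 h with compound, then stimulated 18 h with 1 μg/mL LPS at 37° C. Supernatant IL-23p19 was measured by chemiluminescent sandwich ELISA, and EC50 was fitted. Toxicity was checked on the remaining cells with Cell Titer Glo.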

[2] = system: LPS induced IL-23 (p19/p40) in DC cells differentiated from human PBMC; assay: IL23-p19 ELISA, dendritic cells (DC differentiated from human PBMC), IFNγ primed, LPS stimulated; type: cell-based; conditions: human PBMC-derived dendritic cells, 1 μg/ml LPS, 18 hours, 10 pt
Summary of the method: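 Human PBMC-derived DCs (GM-CSF 100 ng/ml + IL-4 20 ng/ml, 7 days) were primed 24 h with IFNγ 50 ng/ml, pre-incubated 1 h with compound, then stimulated 18 h with LPS 1 μg/ml at 37° C. Supernatant IL-23 was measured by sandwich chemiluminescent ELISA (anti-p19 capture, anti-p40 detection); cytotoxicity was checked by CellTiter-Glo.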

Structure (SMILES)	EC50 [1]	EC50 [2]
O=C(Nc1cnc(N2CCOCC2)cc1N1CCCCC1)c1ccc(-c2cn[nH]c2)o1 [I-43, N-(6-morpholino-4-(piperidin-1-yl)pyridin-3-yl)-5-(1H-pyrazol-4-yl)furan-2-carboxamide]	2.69 µM	3.45 µM
O=C(Nc1ccc(N2CCOCC2)cc1N1CCC(O)CC1)c1cccc(-c2cn[nH]c2)n1 [I-10, N-(2-(4-hydroxypiperidin-1-yl)-4-morpholinophenyl)-6-(1H-pyrazol-4-yl)picolinamide]	0.303 µM	1.74 µM
O=C(Nc1cc(CCN2CCOCC2)ccc1N1CCCCC1)c1csc(-c2cn[nH]c2)n1 [I-68, N-(5-(2-morpholinoethyl)-2-(piperidin-1-yl)phenyl)-2-(1H-pyrazol-4-yl)thiazole-4-carboxamide]	0.0625 µM	0.0476 µM
O=C(Nc1ccc(N2CCOCC2)cc1N1CCCCC1)c1cccc(-c2cn[nH]c2)n1 [I-36, N-(4-morpholino-2-(piperidin-1-yl)phenyl)-6-(1H-pyrazol-4-yl)picolinamide]	2.72 µM	1.3 µM
O=C(Nc1ccc(CN2CCOCC2)cc1N1CCCCC1)c1ccc(-c2cn[nH]c2)o1 [I-49, N-(4-(morpholinomethyl)-2-(piperidin-1-yl)phenyl)-5-(1H-pyrazol-4-yl)furan-2-carboxamide]	1.27 µM	2.96 µM
O=C(Nc1cc(C(=O)N2CCOCC2)ccc1N1CCCCC1)c1ccc(-c2cn[nH]c2)o1 [I-58, N-(5-(morpholine-4-carbonyl)-2-(piperidin-1-yl)phenyl)-5-(1H-pyrazol-4-yl)furan-2-carboxamide]	1.5 µM	5.6 µM
COc1ccc(N2CCOCC2)cc1NC(=O)c1cccc(-c2cn[nH]c2)n1 [I-39, N-(2-methoxy-5-morpholinophenyl)-6-(1H-pyrazol-4-yl)picolinamide]	6.59 µM	3.23 µM
O=C(Nc1ccc(N2CCOCC2)cc1N1CCOCC1)c1csc(-c2cn[nH]c2)n1 [I-15, N-(2,4-dimorpholinophenyl)-2-(1H-pyrazol-4-yl)thiazole-4-carboxamide]	0.173 µM	0.484 µM
O=C(Nc1cc(CCN2CCOCC2)ccc1N1CCCCC1)c1ccc(-c2cn[nH]c2)o1 [I-67, N-(5-(2-morpholinoethyl)-2-(piperidin-1-yl)phenyl)-5-(1H-pyrazol-4-yl)furan-2-carboxamide]	0.307 µM	0.48 µM
